From patent US20110045083A1, “USE LARCH WOOD FOR TREATING INFLAMMATION” (priority 2007, published 2011)
Where “and” joins values, the source holds several entries; their conditions need not be identical. Equal values may be shown once. Entries after “also recorded” stand apart in the source; their conditions may differ. Read-outs that look alike come from different tables or passages of the source.

Key:
[1] = target: T1, COX-1 (purified PGHS-1) (Ovis aries, UniProt P05979); assay: COX-1 assay, purified enzyme, PGE2 EIA; type: biochemical, ram; conditions: for inhibition at 50 µM: screening concentration 50 μM
T1 construct: purified PGHS-1 (COX-1) from ram seminal vesicles; purchased Cayman Chemical Company, Ann Arbor, Mich., USA; host or cells: ram seminal vesicles (tissue-purified)
T1 sequence (P05979 25-600): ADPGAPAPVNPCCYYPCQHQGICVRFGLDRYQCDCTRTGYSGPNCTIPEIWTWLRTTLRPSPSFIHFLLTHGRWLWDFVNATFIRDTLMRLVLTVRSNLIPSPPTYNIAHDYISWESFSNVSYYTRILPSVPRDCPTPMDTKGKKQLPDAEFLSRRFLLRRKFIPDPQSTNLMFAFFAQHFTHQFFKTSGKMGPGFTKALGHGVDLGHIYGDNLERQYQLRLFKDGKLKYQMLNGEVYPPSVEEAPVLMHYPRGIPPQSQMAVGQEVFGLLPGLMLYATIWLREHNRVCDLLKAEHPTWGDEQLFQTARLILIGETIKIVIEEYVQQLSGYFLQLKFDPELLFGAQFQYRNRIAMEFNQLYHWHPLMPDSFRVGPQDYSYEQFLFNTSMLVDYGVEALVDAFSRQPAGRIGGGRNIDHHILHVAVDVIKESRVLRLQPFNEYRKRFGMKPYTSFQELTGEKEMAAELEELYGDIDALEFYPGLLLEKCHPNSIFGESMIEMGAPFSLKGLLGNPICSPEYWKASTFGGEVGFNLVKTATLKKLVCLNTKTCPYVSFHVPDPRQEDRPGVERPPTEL
Protocol: (§1) Principle: The purified enzymes COX-1 and COX-2 are incubated with a defined concentration of test sample and arachidonic acid. After stopping the enzymatic reaction by addition of formic acid and dilution, the produced PGE2 is quantified by means of a PGE2 EIA kit.
(§2) Sample preparation: The test samples (extracts and pure compounds) are dissolved in ethanol. Extracts are tested in concentrations of 20 μg/ml for screening. Pure compounds are tested in concentrations of 50 μM for screening.
(§3) Incubation procedure: The assays are performed in a microtiter scale with purified PGHS-1 (COX-1) from ram seminal vesicles and purified PGHS-2 (COX-2) from sheep placental cotyledones (both: Cayman Chemical Company, Ann Arbor, Mich., USA). The incubation mixture consists of 180 μl 0.1 M TRIS/HCl-buffer (pH 8.0) (Roth, Karlsruhe, Germany), 5 μM hematin, (porcine, ICN, Aurora, Ohio, USA), 18 mM epinephrine hydrogen tartrate (Fluka, Buchs, Switzerland), 0.2 U of enzyme preparation and 50 μM Na2EDTA (only COX-2 assay, Titriplex III, Merck, Darmstadt, Germany). 10 μl of each test solution are added and the mixture is preincubated for 5 min at room temperature. The reaction is started by adding 10 μl of 5 μM arachidonic acid (Cayman Chemical Company) in EtOH p.a. and the reaction mixture is incubated at 37° C. The reaction is terminated after 20 min by addition of 10 μl of 10% formic acid.
(§4) PGE2 EIA: The concentration of PGE2, the main arachidonic acid metabolite in this reaction, is determined by a competitive PGE2 EIA kit (Assay Designs Inc., Ann Arbor, Mich., USA). All samples are diluted in EIA buffer. The EIA is incubated for 2 hours at room temperature on an orbital shaker. After a washing step, 200 μl of substrate solution are added to each well, and the EIA is incubated for 1 hour at room temperature. After addition of 50 μl stop solution, the EIA is evaluated photometrically by an ELISA microplate reader.
(§5) Inhibition of COX refers to reduction of PGE2 formation in comparison to a blank run without inhibitor. Inhibition values are means of at least 2 experiments and each sample is tested in duplicate. […] IC50 values of active samples were determined by testing at least 3 concentrations in 3 different experiments, in duplicate each. IC50 was calculated by logarithmic regression after graphical representation.

[2] = target: T2, COX-2 (purified PGHS-2) (Ovis aries, UniProt P79208); assay: COX-2 assay, purified enzyme, PGE2 EIA; type: biochemical, sheep; conditions: for inhibition at 50 µM: screening concentration 50 μM
T2 construct: purified PGHS-2 (COX-2) from sheep placental cotyledones; purchased Cayman Chemical Company, Ann Arbor, Mich., USA; host or cells: sheep placental cotyledons (tissue-purified)
T2 sequence (P79208 17-603): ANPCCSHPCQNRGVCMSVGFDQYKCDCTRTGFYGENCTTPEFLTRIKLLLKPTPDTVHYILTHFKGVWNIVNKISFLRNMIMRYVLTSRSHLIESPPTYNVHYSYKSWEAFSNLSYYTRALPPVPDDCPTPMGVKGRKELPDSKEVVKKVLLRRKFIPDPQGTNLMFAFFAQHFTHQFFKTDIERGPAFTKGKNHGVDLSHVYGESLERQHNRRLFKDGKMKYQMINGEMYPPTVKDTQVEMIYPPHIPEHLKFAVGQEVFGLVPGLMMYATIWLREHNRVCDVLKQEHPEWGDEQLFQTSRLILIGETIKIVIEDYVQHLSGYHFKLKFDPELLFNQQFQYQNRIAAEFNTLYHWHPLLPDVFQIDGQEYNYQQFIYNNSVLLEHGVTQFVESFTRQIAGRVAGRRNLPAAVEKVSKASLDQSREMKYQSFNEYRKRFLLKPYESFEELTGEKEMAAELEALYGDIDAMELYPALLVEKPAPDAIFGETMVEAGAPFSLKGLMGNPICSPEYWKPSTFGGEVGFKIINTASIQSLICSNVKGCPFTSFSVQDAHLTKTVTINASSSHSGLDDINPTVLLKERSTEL
Protocol: as §1, §2, §3, §4, §5

IC50 COX-1 [1] | IC50 COX-1 ([1]; listed as dehydroabietinol) | inhibition at 50 µM [1] | IC50 COX-2 [2] | IC50 COX-2 ([2]; listed as dehydroabietinol) | inhibition at 50 µM [2] | IC50 COX-1 ([1]; listed as larixol) | IC50 COX-2 ([2]; listed as larixol) | IC50 ([2]; read-out: IC50 COX-2) | Structure (SMILES) | IC50 COX-1 ([1]; listed as palustric acid) | IC50 ([2]; IC50 COX-2)
Inactive | inactive | -1.6 ± 4.6% | Inactive | inactive | 7.7 ± 8% | – | – | – | CC(C)c1ccc2c(c1)CCC1C(C)(CO)CCCC21C (stereo not drawn) [Dehydroabietinol] | – | –
Inactive | – | 2.9 ± 7.8% | Inactive | – | -6 ± 9% | – | – | – | CC(C)c1ccc2c(c1)CCC1C(C)(C(=O)O)CCCC21C (stereo not drawn) [Dehydroabietic acid] | – | –
Inactive | – | 2.1 ± 4.7% | Inactive | – | 8.7 ± 3.8% | inactive | inactive | – | C=CC(C)(O)CCC1C(=C)CC(O)C2C(C)(C)CCCC12C (stereo not drawn) [Larixol] | – | –
Inactive | – | 0.2 ± 5.9% | devoid of COX-2inhibitory activity | – | 38.5 ± 5.9% | – | – | 95 µM and 95.1 µM | C=CC(C)(O)CCC1C(=C)CC(OC(C)=O)C2C(C)(C)CCCC12C (stereo not drawn) [Larixyl acetate] | – | –

Structure (SMILES) | IC50 COX-1 [1] | IC50 COX-1 ([1]; listed as dehydroabietinol) | inhibition at 50 µM [1] | IC50 COX-2 [2] | IC50 COX-2 ([2]; listed as dehydroabietinol) | inhibition at 50 µM [2] | IC50 COX-1 ([1]; listed as larixol) | IC50 COX-2 ([2]; listed as larixol) | IC50 ([2]; read-out: IC50 COX-2) | IC50 COX-1 ([1]; listed as palustric acid) | IC50 ([2]; IC50 COX-2)
C=C[C@@]1(C)CC[C@H]2C(=CC[C@@H]3[C@]2(C)CCC[C@@]3(C)C(=O)O)C1 [Isopimaric acid] | without inhibiting; also recorded: Inactive | – | 15.7 ± 7.1% | without inhibiting; also recorded: Inactive | – | 3.5 ± 6.2% | – | – | – | – | –
CC(C)C1=CC2=C(CC1)C1(C)CCCC(C)(C(=O)O)C1CC2 (stereo not drawn) [Palustric acid] | Inactive | – | 13.5 ± 4.7% | – | – | 49.5 ± 3.5% | – | – | – | without inhibiting | 57.9 µM
